# Results as given in PubChem BioAssay AID184 (DTP/NCI, 2004).
# Where “and” joins values, the source holds several entries; their conditions need not be identical. Equal entries are not always repeated. Inconclusive results and toxic doses are left out.
# Test system: BALB/cJ mice, ADJ-PC-6 ip tumor, median survival T/C
# Assay: NCI In Vivo Anticancer Drug Screen. Data for tumor model ADJ-PC-6 (intraperitoneal) in BALB/cJ mice
# Details: endpoint: median survival time, higher = longer survival
# Description: The antitumor activity of compounds was measured in mice bearing transplantable tumors. Survival or tumor size were measured and the results are expressed as the measurement made in the treated group (T) divided by the measurement made in the vehicle treated control group (C). The tumor model used in this assay is ADJ-PC-6 (intraperitoneal) in BALB/cJ mice
# [1] = dose: 10.0 mg/kg/injection, schedule: Q04DX003 (ip), vehicle: saline
# [2] = dose: 20.0 mg/kg/injection, schedule: Q04DX003 (ip), vehicle: saline
# [3] = dose: 40.0 mg/kg/injection, schedule: Q04DX003 (ip), vehicle: saline
compound,measurement,setting,value
CCCCCCCC(=O)N/N=C(\CO)[C@]1(O)Cc2c(O)c3c(c(O)c2[C@@H](OC2CC(N)C(O)C(C)O2)C1)C(=O)c1c(OC)cccc1C3=O (stereo partly drawn),T/C,"dose: 5.0 mg/kg/injection, schedule: Q04DX003 (ip), vehicle: saline",165 % of control
same,T/C,[1],242 % of control
same,T/C,[2],180 % of control
same,T/C,[3],226 % of control
same,T/C,"dose: 80.0 mg/kg/injection, schedule: Q04DX003 (ip), vehicle: saline",118 % of control
CC1=C(C)C(=O)O[C@@H]([C@](C)(O)[C@]2(O)CC[C@@]3(O)[C@@H]4C[C@H]5O[C@]56[C@@H](O)C=CC(=O)[C@]6(C)[C@H]4CC[C@]23C)C1,T/C,"dose: 1.0 mg/kg/injection, schedule: Q01DX009 (ip), vehicle: saline + alcohol",111 % of control
same,T/C,"dose: 1.0 mg/kg/injection, schedule: Q01DX009 (ip), vehicle: saline with Tween-80",104 % of control
same,T/C,"dose: 2.0 mg/kg/injection, schedule: Q01DX009 (ip), vehicle: saline + alcohol",96 % of control
same,T/C,"dose: 2.0 mg/kg/injection, schedule: Q01DX009 (ip), vehicle: saline with Tween-80",107 % of control
same,T/C,"dose: 4.0 mg/kg/injection, schedule: Q01DX009 (ip), vehicle: saline + alcohol",98 % of control
same,T/C,"dose: 4.0 mg/kg/injection, schedule: Q01DX009 (ip), vehicle: saline with Tween-80",97 % of control
same,T/C,"dose: 8.0 mg/kg/injection, schedule: Q01DX009 (ip), vehicle: saline + alcohol",114 % of control
same,T/C,"dose: 8.0 mg/kg/injection, schedule: Q01DX009 (ip), vehicle: saline with Tween-80",106 % of control
O=c1[nH]cc(F)c(=O)[nH]1,T/C,"dose: 7.5 mg/kg/injection, schedule: Q04DX003 (ip), vehicle: saline",150 % of control and 471 % of control
same,T/C,"dose: 15.0 mg/kg/injection, schedule: Q04DX003 (ip), vehicle: saline",173 % of control and 308 % of control
same,T/C,"dose: 30.0 mg/kg/injection, schedule: Q04DX003 (ip), vehicle: saline",150 % of control and 273 % of control and 471 % of control
same,T/C,"dose: 60.0 mg/kg/injection, schedule: Q04DX003 (ip), vehicle: saline",193 % of control and 335 % of control and 471 % of control
COc1cccc2c1C(=O)c1c(O)c3c(c(O)c1C2=O)C[C@@](O)(C(C)=O)C[C@@H]3OC1CC(N(Cc2ccccc2)Cc2ccccc2)C(O)C(C)O1 (stereo partly drawn),T/C,"dose: 5.0 mg/kg/injection, schedule: Q04DX003 (ip), vehicle: saline with Tween-80",96 % of control
same,T/C,"dose: 10.0 mg/kg/injection, schedule: Q04DX003 (ip), vehicle: saline with Tween-80",109 % of control
same,T/C,"dose: 20.0 mg/kg/injection, schedule: Q04DX003 (ip), vehicle: saline with Tween-80",177 % of control
COC(=O)C[C@](O)(CCCC(C)(C)O)C(=O)O[C@@H]1C(OC)=C[C@]23CCCN2CCc2cc4c(cc2[C@H]13)OCO4,T/C,"dose: 0.25 mg/kg/injection, schedule: Q04DX003 (ip), vehicle: saline",104 % of control
same,T/C,"dose: 0.5 mg/kg/injection, schedule: Q04DX003 (ip), vehicle: saline",93 % of control
same,T/C,"dose: 1.0 mg/kg/injection, schedule: Q04DX003 (ip), vehicle: saline",88 % of control
same,T/C,"dose: 2.0 mg/kg/injection, schedule: Q04DX003 (ip), vehicle: saline",104 % of control
same,T/C,"dose: 4.0 mg/kg/injection, schedule: Q04DX003 (ip), vehicle: saline",102 % of control
CO[C@H](C(=O)[C@@H](O)[C@@H](C)O)[C@@H]1Cc2cc3cc(OC4CC(OC5CC(O)C(O)C(C)O5)C(O)C(C)O4)c(C)c(O)c3c(O)c2C(=O)[C@H]1OC1CC(OC2CC(OC3CC(C)(O)C(O)C(C)O3)C(O)C(C)O2)C(O)C(C)O1 (stereo partly drawn),T/C,"dose: 0.13 mg/kg/injection, schedule: Q04DX003 (ip), vehicle: clinical formulation",104 % of control
same,T/C,"dose: 0.25 mg/kg/injection, schedule: Q04DX003 (ip), vehicle: clinical formulation",108 % of control
same,T/C,"dose: 125.0 micrograms/kg/injection, schedule: Q04DX003 (ip), vehicle: saline",100 % of control
COc1cc(NS(C)(=O)=O)ccc1Nc1c2ccccc2nc2ccccc12,T/C,"dose: 5.0 mg/kg/injection, schedule: Q04DX003 (ip), vehicle: other",161 % of control
same,T/C,"dose: 10.0 mg/kg/injection, schedule: Q04DX003 (ip), vehicle: other",205 % of control
CC(=O)N(C)c1ccc(Nc2cc(C)[nH]c3ccc4ncnc4c23)cc1,T/C,[1],100 % of control
same,T/C,[2],162 % of control
same,T/C,[3],107 % of control
